Measurements published in ChEMBL document CHEMBL4043219, “Development of sulfonamides incorporating phenylacrylamido functionalities as carbonic anhydrase isoforms I, II, IX and XII inhibitors” (Bioorg Med Chem, 2017).

What follows are compounds tested against Carbonic anhydrase 9 (Homo sapiens, UniProt Q16790).
Description: Inhibition of human recombinant carbonic anhydrase-9 preincubated for 10 mins by stopped-flow CO2 hydration assay

Row | SMILES | Ki
1 | COc1ccc(/C=C/C(=O)Nc2ccc(S(N)(=O)=O)cc2)cc1OC | 9.3 nM
2 | NS(=O)(=O)c1ccc(NC(=O)/C=C/c2ccc(OC(F)(F)F)cc2)cc1 | 4.9 nM
3 | NS(=O)(=O)c1ccc(NC(=O)/C=C/c2ccc(F)c(F)c2)cc1 | 151 nM
4 | CC(C)Oc1ccc(/C=C/C(=O)Nc2ccc(S(N)(=O)=O)cc2)cc1 | 20.3 nM
5 | NS(=O)(=O)c1ccc(NC(=O)/C=C/c2ccc(Cl)cc2)cc1 | 12.6 nM
6 | N#Cc1ccc(/C=C/C(=O)Nc2ccc(S(N)(=O)=O)cc2)cc1 | 8 nM
7 | NS(=O)(=O)c1ccc(NC(=O)/C=C/c2cccc(C(F)(F)F)c2)cc1 | 11.6 nM
8 | NS(=O)(=O)c1ccc(NC(=O)/C=C/c2cc(Cl)cc(Cl)c2)cc1 | 229 nM
9 | NS(=O)(=O)c1ccc(NC(=O)/C=C/c2ccc(C(F)(F)F)cc2)cc1 | 2.4 nM
10 | COc1ccc(/C=C/C(=O)Nc2ccc(S(N)(=O)=O)cc2)c(OC)c1 | 9.6 nM
11 | NS(=O)(=O)c1ccc(NC(=O)/C=C/c2ccccc2OC(F)F)cc1 | 1.8 nM
12 | COc1ccc(/C=C/C(=O)Nc2ccc(S(N)(=O)=O)cc2)cc1 | 5.3 nM
13 | NS(=O)(=O)c1ccc(NC(=O)/C=C/c2ccc(F)cc2)cc1 | 2.4 nM
14 | NS(=O)(=O)c1ccc(NC(=O)/C=C/c2cccc(F)c2)cc1 | 2 nM
15 | COc1ccc(/C=C/C(=O)Nc2ccc(S(N)(=O)=O)cc2)c(F)c1 | 11.2 nM
16 | COc1cc(/C=C/C(=O)Nc2ccc(S(N)(=O)=O)cc2)cc(OC)c1OC | 126 nM

The compounds below were run against Carbonic anhydrase 12 (Homo sapiens, UniProt O43570) (assay: Inhibition of human recombinant carbonic anhydrase-12 preincubated for 10 mins by stopped-flow CO2 hydration assay).
Sequence of Carbonic anhydrase 12 (O43570 whole entry): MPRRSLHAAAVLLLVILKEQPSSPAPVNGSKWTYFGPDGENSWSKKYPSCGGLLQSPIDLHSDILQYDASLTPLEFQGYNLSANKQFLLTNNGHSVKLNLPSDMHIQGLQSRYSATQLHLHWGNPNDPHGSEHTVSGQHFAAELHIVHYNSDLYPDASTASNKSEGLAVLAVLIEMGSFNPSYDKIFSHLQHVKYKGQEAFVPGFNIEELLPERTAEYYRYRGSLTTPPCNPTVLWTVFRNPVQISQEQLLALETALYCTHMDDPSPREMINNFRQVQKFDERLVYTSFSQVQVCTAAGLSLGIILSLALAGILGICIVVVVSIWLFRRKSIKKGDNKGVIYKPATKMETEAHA

Row | SMILES | Ki
17 | NS(=O)(=O)c1ccc(NC(=O)/C=C/c2ccccc2OC(F)F)cc1 | 4.6 nM
